Measurements: patent US5889148A, “Antibiotic peptides” (priority 1995, dated 1999)
No end group written: not given here.

Key:
red blood cells = format: cell-based, human
Method: To 190 μl of the red blood cell-containing solution thus prepared, was added 10 μl of peptide solution prior to the incubation at 37° C. for 30 min. After incubation, centrifugation followed to obtain supernatant. Then, a level (%) of cell lysis caused by peptides was determined by the examination of absorbance at 576 nm (see: Table 12). At this moment, TEDFK, TEDFK-1A, M5, M6, M19, M22 and M32 were chosen as peptide fragments of Tenecin, and an antibiotic peptide KLK (see: Natori, S. et al., J. Biochem., 117(6):1312-1316(1995)) and a commercially available antibiotic, Amphotericin B(Sigma, USA) known to lyse a red blood cell were employed as controls, respectively.

[1] = tested on: Candida albicans (ATCC 36232); experiment: MIC test, antifungal activity; format: cell-based
Method: (§1) Antibacterial and antifungal activities of the peptides were determined by employing MIC test as follows:
(§2) To determine antifungal activity, a test organism Candida albicans (ATCC 36232) was cultured on Sabouraud dextrose agar plate for 24 to 48 hrs, and colonies thus grown were suspended on Sabouraud dextrose medium(Gibco, USA) to have O.D.530 =0.5(3×10^6 cells) and further diluted with 100-fold to have O.D.530 =0.005(3×10^4 cells). 100 μl of Candida albicans culture thus prepared was pipetted on 96-well microplates which had already contained 100 μl of a serially diluted peptide solution.

[2] = tested on: Staphylococcus aureus (ATCC 6538); experiment: MIC test, antibacterial activity; format: cell-based
Method: as §1, §2
Antibacterial activity of peptide was determined analogously as above, with an exception that Staphylococcus aureus (ATCC 6538) selected as a test organism was cultured on M-3 medium(Gibco, USA) at 37° C. and cell number was adjusted to 2×10^8 cells before 100-fold dilution.

[3] = Table 8, TEDFK derivatives of group 1
[4] = Table 3, addition of an amino acid to N-terminal of TED
[5] = Table 4, addition of an amino acid to N-terminal of TEDF
[6] = Table 1, peptide fragments of Tenecin
[7] = Table 11, enantiomer, retro-inverso, D-amino acid derivatives of M22

C[C@@H]1[C@H](O)[C@@H](C)/C=C/C=C/C=C/C=C/C=C/C=C/C=C/[C@H](O[C@@H]2O[C@H](C)[C@@H](O)[C@H](N)[C@@H]2O)C[C@@H]2O[C@](O)(C[C@@H](O)C[C@@H](O)[C@H](O)CC[C@@H](O)C[C@@H](O)CC(=O)O[C@H]1C)C[C@H](O)[C@H]2C(=O)O [Amphotericin B]
cell lysis (in words) (red blood cells): cause cell lysis

KPYCNGKRVCVCR--NH2 (KPYCNGKRVCVCR-NH2; cysteine pairing not given here) [M2]
MIC C. albicans [1, 3]: 6.25 µg/mL | MIC S. aureus [2, 3]: 6.35 µg/mL

KWYCNGKRVCVCR--NH2 (KWYCNGKRVCVCR-NH2; cysteine pairing not given here) [M26]
MIC C. albicans [1, 3]: 6.25 µg/mL | MIC S. aureus [2, 3]: 6.35 µg/mL

KYCNGKRVCVCR--NH2 (KYCNGKRVCVCR-NH2; cysteine pairing not given here) [TEDK]
MIC C. albicans [1, 4]: 5 µg/mL | MIC S. aureus [2, 4]: 5 µg/mL

KYCNGKRVCVCRK--NH2 (KYCNGKRVCVCRK-NH2; cysteine pairing not given here) [M16]
MIC C. albicans [1, 3]: 6.25 µg/mL | MIC S. aureus [2, 3]: 6.35 µg/mL

LFYCNGKRVCVCR--NH2 (LFYCNGKRVCVCR-NH2; cysteine pairing not given here) [TEDFL]
MIC C. albicans [1, 5]: 100 µg/mL | MIC S. aureus [2, 5]: 30 µg/mL

LSVEAKGVKLGGGYCNGKRVCVCR--NH2 (LSVEAKGVKLGGGYCNGKRVCVCR-NH2; cysteine pairing not given here) [TEQ]
MIC C. albicans [1, 6]: > 100 µg/mL | MIC S. aureus [2, 6]: > 500 µg/mL

LYCNGKRVCVCR--NH2 (LYCNGKRVCVCR-NH2; cysteine pairing not given here) [TEDL]
MIC C. albicans [1, 4]: 5 µg/mL | MIC S. aureus [2, 4]: 5 µg/mL

PYCNGKRVCVCR--NH2 (PYCNGKRVCVCR-NH2; cysteine pairing not given here) [TEDP]
MIC C. albicans [1, 4]: 5 µg/mL | MIC S. aureus [2, 4]: 5 µg/mL

SFYCNGKRVCVCR--NH2 (SFYCNGKRVCVCR-NH2; cysteine pairing not given here) [TEDFS]
MIC C. albicans [1, 5]: 10 µg/mL | MIC S. aureus [2, 5]: 50 µg/mL

SYCNGKRVCVCR--NH2 (SYCNGKRVCVCR-NH2; cysteine pairing not given here) [TEDS]
MIC C. albicans [1, 4]: 50 µg/mL | MIC S. aureus [2, 4]: 10 µg/mL

VTCDILSSVEAKGVKL--NH2 (VTCDILSSVEAKGVKL-NH2) [TEC]
MIC C. albicans [1, 6]: > 100 µg/mL | MIC S. aureus [2, 6]: > 500 µg/mL

VTCDILSVEAKGVKLNDAACAAHC-LFRGRSGGYCNGKRVCVCR--CO2 H [Tenecin]
MIC C. albicans [1, 6]: > 500 µg/mL | MIC S. aureus [2, 6]: 3 µg/mL

WFYCNGKRVCVCR--NH2 (WFYCNGKRVCVCR-NH2; cysteine pairing not given here) [M29]
MIC C. albicans [1, 3]: 25 µg/mL | MIC S. aureus [2, 3]: 30 µg/mL

WFYCNGKRVCVCR--NH2 (WFYCNGKRVCVCR-NH2; cysteine pairing not given here) [TEDFW]
MIC C. albicans [1, 5]: 10 µg/mL | MIC S. aureus [2, 5]: 1 µg/mL

WYCNGKRVCVCR--NH2 (WYCNGKRVCVCR-NH2; cysteine pairing not given here) [TEDW]
MIC C. albicans [1, 4]: 20 µg/mL | MIC S. aureus [2, 4]: 20 µg/mL

YCNGKRVCVCR--NH2 (YCNGKRVCVCR-NH2; cysteine pairing not given here) [TED]
antifungal activity (in words) [1]: excellent antifungal activity | MIC C. albicans [1, 6]: 10 µg/mL | MIC against C. albicans ([1]; Table 2, modification of N-terminal residues of TED): 10 µg/mL | MIC C. albicans [1, 4]: 10 µg/mL | MIC S. aureus [2, 6]: 10 µg/mL | MIC S. aureus [2, 4]: 10 µg/mL

YCNGKRVCVCRKK--NH2 (YCNGKRVCVCRKK-NH2; cysteine pairing not given here) [M15]
MIC C. albicans [1, 3]: 6.25 µg/mL | MIC S. aureus [2, 3]: 6.35 µg/mL

YFYCNGKRVCVCR--NH2 (YFYCNGKRVCVCR-NH2; cysteine pairing not given here) [TEDFY]
MIC C. albicans [1, 5]: 100 µg/mL | MIC S. aureus [2, 5]: 50 µg/mL

kfycngkrvcvcr-NH2 [Enantiomer of TEDFK]
MIC C. albicans [1, 7]: 6.35 µg/mL | MIC S. aureus [2, 7]: 6.35 µg/mL

rcvcvrkgncyfk-NH2 [Retro-inverso of TEDFK]
MIC C. albicans [1, 7]: 6.25 µg/mL | MIC S. aureus [2, 7]: 6.25 µg/mL
